Source: patent publication US9833497B2, “Human originated EGF domain proteins and use of the same” (CHENGDU SOURCEBIO LIMITED-LIABILITY COMPANY, priority 2013, dated 2017)

Assays:
Format in all cases: cell-based
[1] = system: Serratia marcescens; assay: MIC against Gram-negative bacteria: Serratia marcescens; details: for MIC against S. marcescens / MIC (μg/mL) S. marcescens: 5×10^5 CFU/mL
Procedure, shortened: (§1)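 First, colonies from LB agar were grown in LB at 37° C, 185 rpm, to McFarland turbidity 0.5, then centrifuged and resuspended in fresh LB. Next, wells received 5×10^5 CFU/mL bacteria plus two-fold serially diluted EGF domain protein (triplicate). Finally, plates were shaken at 37° C and the no-growth concentration taken as MIC.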

[2] = system: Citrobacter diversus; assay: MIC against Gram-negative bacteria: Citrobacter diversus; details: for MIC against C. diversus / MIC (μg/mL) C. diversus: 5×10^5 CFU/mL
Procedure, shortened: as §1

[3] = system: Proteus vulgaris; assay: MIC against Gram-negative bacteria: Proteus vulgaris; details: for MIC against P. vulgaris / MIC (μg/mL) P. vulgaris: 5×10^5 CFU/mL
Procedure, shortened: as §1

[4] = system: Proteus mirabilis; assay: MIC against Gram-negative bacteria: Proteus mirabilis; details: for MIC against P. mirabilis / MIC (μg/mL) P. mirabilis: 5×10^5 CFU/mL
Procedure, shortened: as §1

[5] = system: Moraxella catarrhalis; assay: MIC against Gram-negative bacteria: Moraxella catarrhalis; details: for MIC against M. catarrhalis / MIC (μg/mL) M. catarrhalis: 5×10^5 CFU/mL
Procedure, shortened: as §1

[6] = system: Aeromonas hydrophila; assay: MIC against Gram-negative bacteria: Aeromonas hydrophila; details: for MIC against A. hydrophila / MIC (μg/mL) A. hydrophila: 5×10^5 CFU/mL
Procedure, shortened: as §1

[7] = system: E. coli BL21; assay: MIC against Gram-negative bacteria: E. coli BL21; details: for MIC against E. coli BL21 / MIC (μg/mL) E. coli BL21: 5×10^5 CFU/mL
Procedure, shortened: as §1

[8] = system: Klebsiella pneumonia; assay: MIC against Gram-negative bacteria: Klebsiella pneumonia; details: for MIC against K. pneumonia / MIC (μg/mL) K. pneumonia: 5×10^5 CFU/mL
Procedure, shortened: as §1

[9] = system: Pseudomonas aeruginosa; assay: MIC against Gram-negative bacteria: Pseudomonas aeruginosa; details: for MIC against P. aeruginosa / MIC (μg/mL) P. aeruginosa: 5×10^5 CFU/mL
Procedure, shortened: as §1

[10] = system: Enterobacter cloacae; assay: MIC against Gram-negative bacteria: Enterobacter cloacae; details: for MIC against E. cloacae / MIC (μg/mL) E. cloacae: 5×10^5 CFU/mL
Procedure, shortened: as §1

[11] = system: E. coli DH5α; assay: Antibacterial activity: MIC and growth curve against E. coli DH5α in 96-well plate; details: minimal inhibitory concentration against E. coli DH5α; 96-well plate, 5×10^5 CFU/mL, 37° C., judged after 8 h
Procedure, shortened: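 Log-phase DH5α (OD600 about 0.5, 37° C, 185 rpm in LB) was pelleted, resuspended in fresh LB and seeded at 5×10^5 CFU/mL with recombinant protein at 50, 25 and 12.5 μg/mL (two-fold series), in triplicate. Plates were shaken at 175 rpm, 37° C, and OD600 was read every 30 min. MIC was the lowest concentration with no growth.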

[12] = E. coli BL21, 10 h cultivation at 37° C.
[13] = S. marcescens, 10 h cultivation at 37° C.
[14] = C. diversus, 10 h cultivation at 37° C.
[15] = P. vulgaris, 10 h cultivation at 37° C.
[16] = P. mirabilis, 10 h cultivation at 37° C.
[17] = M. catarrhalis, 10 h cultivation at 37° C.
[18] = A. hydrophila, 10 h cultivation at 37° C.
[19] = K. pneumonia, 10 h cultivation at 37° C.
[20] = P. aeruginosa, 10 h cultivation at 37° C.
[21] = E. cloacae, 10 h cultivation at 37° C.
[22] = Serratia marcescens, 96-well plate, 37° C., 10 h
[23] = Citrobacter diversus, 96-well plate, 37° C., 10 h
[24] = Proteus vulgaris, 96-well plate, 37° C., 10 h
[25] = Proteus mirabilis, 96-well plate, 37° C., 10 h
[26] = Moraxella catarrhalis, 96-well plate, 37° C., 10 h
[27] = Aeromonas hydrophila, 96-well plate, 37° C., 10 h
[28] = E. coli BL21, 96-well plate, 37° C., 10 h
[29] = Klebsiella pneumonia, 96-well plate, 37° C., 10 h
[30] = Pseudomonas aeruginosa, 96-well plate, 37° C., 10 h
[31] = Enterobacter cloacae, 96-well plate, 37° C., 10 h

Substance: PRT1473 (SFLNCSLDNGGCTHYCLEEVGWRRCSCAPGYKLGDDLLQCH; listed as Homo sapiens)
- MIC against S. marcescens ([1]; Serratia marcescens, 10 h cultivation at 37° C.): 12.5 µg/mL
- MIC against C. diversus ([2]; Citrobacter diversus, 10 h cultivation at 37° C.): 12.5 µg/mL
- MIC against P. vulgaris ([3]; Proteus vulgaris, 10 h cultivation at 37° C.): 25 µg/mL
- MIC against P. mirabilis ([4]; Proteus mirabilis, 10 h cultivation at 37° C.): 50 µg/mL
- MIC against M. catarrhalis ([5]; Moraxella catarrhalis, 10 h cultivation at 37° C.): 25 µg/mL
- MIC against A. hydrophila ([6]; Aeromonas hydrophila, 10 h cultivation at 37° C.): 50 µg/mL
- MIC against E. coli BL21 [7, 12]: 25 µg/mL
- MIC against K. pneumonia ([8]; Klebsiella pneumonia, 10 h cultivation at 37° C.): 50 µg/mL
- MIC against P. aeruginosa ([9]; Pseudomonas aeruginosa, 10 h cultivation at 37° C.): 25 µg/mL
- MIC against E. cloacae ([10]; Enterobacter cloacae, 10 h cultivation at 37° C.): 12.5 µg/mL
- MIC [11]: 12.5 µg/mL

Substance: PRT996 (DIDECRSSPCANGGQCQDQPGAFHCKCLPGFEGPRCQ; listed as Homo sapiens)
- MIC [1, 13]: 12.5 µg/mL
- MIC [2, 14]: 12.5 µg/mL
- MIC [3, 15]: 25 µg/mL
- MIC [4, 16]: 12.5 µg/mL
- MIC [5, 17]: 25 µg/mL
- MIC [6, 18]: 100 µg/mL
- MIC [7, 12]: 12.5 µg/mL
- MIC [8, 19]: 12.5 µg/mL
- MIC [9, 20]: 25 µg/mL
- MIC [10, 21]: 12.5 µg/mL
- MIC [11]: 25 µg/mL

Substance: PRT91 (DTNECIQFPFVCPRDKPVCVNTYGSYRCRTNKKCSRGYEPNEDGTAC; listed as Homo sapiens)
- MIC (μg/mL) S. marcescens [1, 22]: 12.5 µg/mL
- MIC (μg/mL) C. diversus [2, 23]: 12.5 µg/mL
- MIC (μg/mL) P. vulgaris [3, 24]: 50 µg/mL
- MIC (μg/mL) P. mirabilis [4, 25]: 12.5 µg/mL
- MIC (μg/mL) M. catarrhalis [5, 26]: 25 µg/mL
- MIC (μg/mL) A. hydrophila [6, 27]: 25 µg/mL
- MIC (μg/mL) E. coli BL21 [7, 28]: 12.5 µg/mL
- MIC (μg/mL) K. pneumonia [8, 29]: 12.5 µg/mL
- MIC (μg/mL) P. aeruginosa [9, 30]: 12.5 µg/mL
- MIC (μg/mL) E. cloacae [10, 31]: 12.5 µg/mL
- MIC [11]: 12.5 µg/mL

Substance: PRT1234 (LASGCPWMCSGRGICDAGRCVCDRGFGGPYCV; listed as Homo sapiens)
- MIC against S. marcescens [1, 22]: 25 µg/mL
- MIC against C. diversus [2, 23]: 25 µg/mL
- MIC against P. vulgaris [3, 24]: 12.5 µg/mL
- MIC against P. mirabilis [4, 25]: 25 µg/mL
- MIC against M. catarrhalis [5, 26]: 25 µg/mL
- MIC against A. hydrophila [6, 27]: 25 µg/mL
- MIC against E. coli BL21 [7, 28]: 50 µg/mL
- MIC against K. pneumonia [8, 29]: 25 µg/mL
- MIC against P. aeruginosa [9, 30]: 12.5 µg/mL
- MIC against E. cloacae [10, 31]: 50 µg/mL
- MIC [11]: 25 µg/mL

Substance: PRT168 (CLPGCDEQHGFCDKPGECKCRVGWQGRYC; listed as Homo sapiens)
- MIC (μg/mL) S. marcescens [1, 13]: 12.5 µg/mL
- MIC (μg/mL) C. diversus [2, 14]: 12.5 µg/mL
- MIC (μg/mL) P. vulgaris [3, 15]: 50 µg/mL
- MIC (μg/mL) P. mirabilis [4, 16]: 12.5 µg/mL
- MIC (μg/mL) M. catarrhalis [5, 17]: 50 µg/mL
- MIC (μg/mL) A. hydrophila [6, 18]: 50 µg/mL
- MIC (μg/mL) E. coli BL21 [7, 12]: 25 µg/mL
- MIC (μg/mL) K. pneumonia [8, 19]: 25 µg/mL
- MIC (μg/mL) P. aeruginosa [9, 20]: 12.5 µg/mL
- MIC (μg/mL) E. cloacae [10, 21]: 12.5 µg/mL
- MIC [11]: 25 µg/mL

Substance: PRT445 (DVNECELYGQEGRPRLCMHACVNTPGSYRCTCPGGYRTLADGKSCE; listed as Homo sapiens)
- MIC against S. marcescens ([1]; 96-well plate, 37° C., 10 h): 12.5 µg/mL
- MIC against C. diversus ([2]; 96-well plate, 37° C., 10 h): 50 µg/mL
- MIC against P. vulgaris ([3]; 96-well plate, 37° C., 10 h): 12.5 µg/mL
- MIC against P. mirabilis ([4]; 96-well plate, 37° C., 10 h): 12.5 µg/mL
- MIC against M. catarrhalis ([5]; 96-well plate, 37° C., 10 h): 12.5 µg/mL
- MIC against A. hydrophila ([6]; 96-well plate, 37° C., 10 h): 25 µg/mL
- MIC against E. coli BL21 ([7]; 96-well plate, 37° C., 10 h): 12.5 µg/mL
- MIC against K. pneumonia ([8]; 96-well plate, 37° C., 10 h): 25 µg/mL
- MIC against P. aeruginosa ([9]; 96-well plate, 37° C., 10 h): 50 µg/mL
- MIC against E. cloacae ([10]; 96-well plate, 37° C., 10 h): 12.5 µg/mL
- MIC [11]: 50 µg/mL

Substance: PRT34 (ACHPGFYGPDCKLRCSCNNGEMCDRFQGCLCSPGWQGLQCE; listed as Homo sapiens)
- MIC (μg/mL) S. marcescens [1, 22]: 12.5 µg/mL
- MIC (μg/mL) C. diversus [2, 23]: 25 µg/mL
- MIC (μg/mL) P. vulgaris [3, 24]: 25 µg/mL
- MIC (μg/mL) P. mirabilis [4, 25]: 12.5 µg/mL
- MIC (μg/mL) M. catarrhalis [5, 26]: 12.5 µg/mL
- MIC (μg/mL) A. hydrophila [6, 27]: 25 µg/mL
- MIC (μg/mL) E. coli BL21 [7, 28]: 25 µg/mL
- MIC (μg/mL) K. pneumonia [8, 29]: 12.5 µg/mL
- MIC (μg/mL) P. aeruginosa [9, 30]: 25 µg/mL
- MIC (μg/mL) E. cloacae [10, 31]: 12.5 µg/mL
- MIC [11]: 100 µg/mL
